The data set in a line: RP, Thermo Scientific Hypersil GOLD, 5 × 2.1 mm, 1.9 µm, 45 °C, 0.25 mL/min, estimated dead time 0.044 min; A: water + 0.1% formic acid, pH 3; B: 50% acetonitrile + 50% isopropanol + 0.1% formic acid, pH 3; gradient (min/%B) 0/5 0.5/5 5/50 5.5/95 6.5/95 10/5. As to conditions: stereoisomer not certain.
With `CCCCCCCCC=CCCCCCCCC(=O)OC(COC(=O)CCCCCCCCCCCCCCC)COP(=O)([O-])OCC[N+](C)(C)C` (stereo not given) [PC(34:1)], the LC retention time is 7.23 min.
For the compound `CCCCCC=CCC=CCCCCCCCCCC(=O)OC(COC(=O)CCCCCCCCCCCCC)COP(=O)([O-])OCC[N+](C)(C)C` (stereo not given) [PC(34:2)], the LC retention time was 6.89 min.
With `CCC=CCC=CCC=CCCCCCCCC(=O)OC(COC(=O)CCCCCCCCCCCCCCC)COP(=O)([O-])OCC[N+](C)(C)C` (stereo not given) [PC(34:3)], the LC retention time is 7.4 min.
Regarding `CCCCCC=CCC=CCC=CCC=CCCCC(=O)OC(COC(=O)CCCCCCCCCCCCC)COP(=O)([O-])OCC[N+](C)(C)C` (stereo not given) [PC(34:4)], the LC retention time is 6.97 min.
As to `CCCCCC=CCC=CCC=CCC=CCCCC(=O)OC(COC(=O)CCCCCCCCCCCCCCC)COP(=O)(O)OCC[N+](C)(C)C` (stereo not given) [PC(36:4)], the LC retention time was 7.43 min.
For the compound `CCCCCC=CCC=CCC=CCC=CCCCC(=O)OC(COC(=O)CCCCCC=CCCCCCCCC)COP(=O)([O-])OCC[N+](C)(C)C` (stereo not given) [PC(36:5)], the LC retention time is 7.38 min.
The same measure for `CCCCCC=CCC=CCC=CCCCCC(=O)OCC(COP(=O)([O-])OCC[N+](C)(C)C)OC(=O)CCCCCCCCCCCCCCCCCCC` (stereo not given) [PC(38:3)]: 7.4 min.
For the compound `CCCCCC=CCC=CCC=CCC=CCCCCCC(=O)OC(COC(=O)CCCCCCCCCCCCCCC)COP(=O)([O-])OCC[N+](C)(C)C` (stereo not given) [PC(38:4)], the LC retention time was 7.4 min.
As to `CCCCCC=CCC=CCC=CCC=CCC=CCCC(=O)OC(COC(=O)CCCCCCCCCCCCCCC)COP(=O)([O-])OCC[N+](C)(C)C` (stereo not given) [PC(38:5)], the LC retention time was 7.41 min.
The same measure for `CCC=CCC=CCC=CCC=CCC=CCC=CCCC(=O)OC(COC(=O)CCCCCCCCCCCCCCC)COP(=O)([O-])OCC[N+](C)(C)C` (stereo not given) [PC(38:6)]: 7.39 min.
With `CCC=CCC=CCC=CCC=CCC=CCC=CCCC(=O)OC(COC(=O)CCCCCC=CCCCCCCCC)COP(=O)([O-])OCC[N+](C)(C)C` (stereo not given) [PC(38:7)] the figure was 7.37 min; with `CCCCCC=CCC=CCC=CCC=CCC=CCCC(=O)OC(COC(=O)CCCCCCCCCCCCCCCCC)COP(=O)([O-])OCC[N+](C)(C)C` (stereo not given) [PC(40:5)], 7.4 min; with `CCC=CCC=CCC=CCC=CCC=CCC=CCCC(=O)OC(COC(=O)CCCCCCCCCCCCCCCCC)COP(=O)([O-])OCC[N+](C)(C)C` (stereo not given) [PC(40:6)], 7.14 min.
In the case of `CCCCCC=CCC=CCC=CCC=CCCCCCC(=O)OCC(COP(=O)([O-])OCC[N+](C)(C)C)OC(=O)CCCCC=CCC=CCC=CCCCCC` (stereo not given) [PC(40:7)], the LC retention time is 7.4 min.
Consider `CCCCCCCCCCCCCC=CC(O)C(COP(=O)([O-])OCC[N+](C)(C)C)NC(=O)CCCCCCCCCCCCCC` (stereo not given) [SM(33:1)], for which the LC retention time is 6.69 min.
With `CCCCCCCCCCCCCC(=O)OCC(O)COP(=O)([O-])OCC[N+](C)(C)C` (stereo not given) [lysoPC(14:0)], the LC retention time was 6.62 min.
On to `CCCCCCCCCCCCCCCC(=O)OCC(O)COP(=O)([O-])OCC[N+](C)(C)C` (stereo not given) [lysoPC(16:0)], for which the LC retention time was 6.89 min.
As to `CCCCCCC=CCCCCCCCC(=O)OCC(O)COP(=O)([O-])OCC[N+](C)(C)C` (stereo not given) [lysoPC(16:1)], the LC retention time is 6.67 min.
`CCCCCCCCC=CCCCCCCCC(=O)OCC(O)COP(=O)([O-])OCC[N+](C)(C)C` (stereo not given) [lysoPC(18:1)]: the LC retention time was 6.93 min.
With `CCCCCC=CCC=CCCCCCCCC(=O)OCC(O)COP(=O)([O-])OCC[N+](C)(C)C` (stereo not given) [lysoPC(18:2)] the figure was 6.72 min; with `CCC=CCC=CCC=CCCCCCCCC(=O)OCC(O)COP(=O)([O-])OCC[N+](C)(C)C` (stereo not given) [lysoPC(18:3)], 6.59 min.
For `CCCCCCCCC=CCC=CCC=CCCCC(=O)OCC(O)COP(=O)([O-])OCC[N+](C)(C)C` (stereo not given) [lysoPC(20:3)], the LC retention time was 6.8 min.
As to `CCCCCC=CCC=CCC=CCC=CCCCC(=O)OCC(O)COP(=O)([O-])OCC[N+](C)(C)C` (stereo not given) [lysoPC(20:4)], the LC retention time is 6.69 min.
Consider `CCC=CCC=CCC=CCC=CCC=CCCCC(=O)OCC(O)COP(=O)([O-])OCC[N+](C)(C)C` (stereo not given) [lysoPC(20:5)], for which the LC retention time is 6.55 min.
Consider `CCC=CCC=CCC=CCC=CCC=CCC=CCCC(=O)OCC(O)COP(=O)([O-])OCC[N+](C)(C)C` (stereo not given) [lysoPC(22:6)], for which the LC retention time was 6.65 min.
For the compound `CCCCCCCCCCCCCCCCOCC(O)COP(=O)([O-])OCC[N+](C)(C)C` (stereo not given) [lysoPC(O-16:0)], the LC retention time is 7.08 min.
For `CCCCCCCCC=CCCCCCCCCOCC(O)COP(=O)([O-])OCC[N+](C)(C)C` (stereo not given) [lysoPC(O-18:1)], the LC retention time is 7.1 min.
In the case of `CCCCCCCCCCCCCCCCCC(=O)OCC(O)COP(=O)(O)OCCN` (stereo not given) [lysoPE(18:0)], the LC retention time is 6.75 min.
In the case of `CCCCCCCCC=CCCCCCCCC(=O)OCC(O)COP(=O)(O)OCCN` (stereo not given) [lysoPE(18:1)], the LC retention time is 6.92 min.
For the compound `CCCCCC=CCC=CCC=CCC=CCCCC(=O)OCC(O)COP(=O)(O)OCCN` (stereo not given) [lysoPE(20:4)], the LC retention time is 6.69 min.

(Values after the RepoRT retention time repository (doi:10.1002/rcm.4015).)
